# According to article PMC12291913 (Antibiotics, 2025):
# System: M. avium clinical isolate Cl-A-2 (GyrA Asp95Tyr)
# Assay type: cell-based, M. avium subsp. hominissuis
structure (smiles),measurement,value
Cc1c(N2CC(N(C)C)C2)c(F)cc2c(=O)c(C(=O)O)cn(-c3nc(N)c(F)cc3F)c12 [WQ-3810],MIC,4 µg/mL
same,MIC with 1 µg/mL EMB,1 (×0.25) µg/mL
same,MIC with 1 µg/mL INH,1(×0.25) µg/mL
